# Data reported in US6610729B1, “Hydroxamic acid derivatives and medicinal utilization thereof” (Mitsubishi Pharma Corporation, priority 1998, dated 2003).
# pIC50: −log10 of the molar value. Counter-ions that a name gives are not always drawn.
# Tests used:
# [1] = tested on: release of TNF α from THP-1 cells; test: Inhibitory activity of TNF α release from THP-1 cells (LPS, ELISA); assay type: cell-based; details: 3 hr, 37° C., TNF α by ELISA
# Method: The inhibitory effect of each compound (compounds of Examples 1, 2, 3, 6, 35, 39 and 44) on the release of TNF α from THP-1 cells which are monocyte cultured cells [see Nature 370, 218-220 (1994)] was investigated.
# The THP-1 cells were suspended to a concentration of 1×10 ^6 cells/ml in RPMI1640 medium supplemented with 10% fetal calf serum (FCS) and dispensed by 100 μl. A 2 μg/ml LPS was prepared with RPMI1640 medium supplemented with 10% FCS. Each compound (dissolved in dimethyl sulfoxide) was diluted 500-fold with the LPS solution.
# The diluted solutions of these compounds were added to the dispensed cell suspensions by 100 μl and allowed for 3 hr to react under the conditions of 37° C., 5% CO2. After the completion of the reaction, the reaction mixture was centrifuged and the culture supernatant was collected. The TNF α amount was quantitatively measured by ELISA (enzyme-linked immunosorbent assay). The TNF α release inhibitory effect by each compound was calculated from the proportion of released TNF α amount of the compound addition group relative to that of the compound non-addition group.
# [2] = Solubility in saline (0.9% aqueous sodium chloride solution) at 25° C.; assay type: physicochemical; details: for solubility: saline or isotonic
# Method: The solubility of the Example compounds of the present invention in saline (0.9% aqueous sodium chloride solution) at 25° C. was measured.
# [3] = tested on: release of TNF α from LPS treated human whole blood; test: Inhibitory activity of TNF α release from LPS treated human whole blood (ELISA); assay type: cell-based; details: LPS treated human whole blood diluted 4-fold, 24 hr, 37° C., TNF α by ELISA
# Method: The inhibitory effect of each compound (compounds of Examples 2, 6, 7, 10, 11, 37, 147, 231 and 245) on the release of TNF α from LPS treated human whole blood [see: Lymphokine Res 8, 141-146 (1989)] was investigated.
# Human whole blood was diluted 4-fold with RPMI1640 medium supplemented with 10% FCS. The diluted blood was dispensed to a 96 multi-well plate by 100 μl and equilibrated under the conditions of 37° C., 5% CO2. LPS (2 μg/ml) was prepared with RPMI1640 medium supplemented with 10% FCS and a culture broth prepared by dissolving each compound (dissolved in dimethyl sulfoxide) in the LPS solution was added by 100 μl/well (final concentrated of dimethyl sulfoxide 0.1%), which was followed by incubation for 24 hr (37° C., 5% CO2). After the incubation, the reaction mixture was centrifuged (1,500 rpm, 5 min). The culture supernatant (40 μl/well) was collected, and TNF α amount in the supernatant was quantitatively measured by ELISA. The TNF α release inhibitory effect by each compound was calculated from the proportion of release TNF α amount of the compound addition group relitive to that of the compound non-addition group.
SMILES,solubility [2] [mg/mL],pIC50 [3],"Solubility, saline [2] [mg/mL]",other results
"CC(C)C[C@@H](C(=O)N[C@@H](Cc1ccccc1)C(=O)c1ccc(OCCN2CCN(C)CC2)cc1)C(CN1C(=O)c2ccccc2C1=O)C(=O)NO (single isomer, unassigned) [Example 1, 5-Methyl-3(R)-[1(S)-[4-[2-[1-(4-methyl)piperazinyl]ethoxy]benzoyl]-2-phenyl]ethylcarbamoyl-2(R or S)-phthalimidomethylhexanohydroxamic Acid Dihydrochloride]",> 10,,,pIC50 ([1]; Homo sapiens): 6.57
"CC(C)C[C@@H](C(=O)N[C@@H](Cc1ccc(NC(=N)N)cc1)C(=O)c1ccco1)C(CN1C(=O)c2ccccc2C1=O)C(=O)NO (single isomer, unassigned) [Example 3, 3(R)-[1(S)-(2-Furyl)carbonyl-2-(4-guanidinophenyl)]ethylcarbamoyl-5-methyl-2(R or S)-phthalimidomethylhexanohydroxamic Acid Hydrochloride]",,,,pIC50 ([1]; Homo sapiens): 6.72
"CC(C)C[C@@H](C(=O)N[C@@H](Cc1ccccc1)C(=O)c1ccc(OCCN(C)C)cc1)C(CCCc1ccccc1)C(=O)NO.Cl (single isomer, unassigned) [Example 35, 3(R)-[1(S)-[4-(2-Dimethylaminoethoxy)benzoyl]-2-phenyl]ethylcarbamoyl-5-methyl-2(R or S)-(3-phenylpropyl)hexanohydroxamic Acid Hydrochloride]",,,>20,pIC50 [1]: 6.85
"CC(C)C[C@@H](C(=O)N[C@@H](Cc1ccccc1)C(=O)c1ccc(OCCN(C)C)cc1)C(CN1C(=O)N(C)C(C)(C)C1=O)C(=O)NO.Cl (single isomer, unassigned) [Example 37, 3(R)-[1(S)-[4-(2-Dimethylaminoethoxy)benzoyl]-2-phenyl]ethylcarbamoyl-5-methyl-2(R or S)-(2,5-dioxo-3,4,4-trimethyl-1-imidazolidinyl)methylhexanohydroxamic Acid Hydrochloride]",,5.46,>20,
"CC(C)C[C@@H](C(=O)N[C@H](C(=O)c1ccc(OCCN(C)C)cc1)C(C)(C)C)C(CN1C(=O)c2ccccc2C1=O)C(=O)NO.Cl (single isomer, unassigned) [Example 39, 3(R)-[2,2-Dimethyl-1(S)-[4-(2-dimethylaminoethoxy)benzoyl]]propylcarbamoyl-5-methyl-2(R or S)-phthalimidomethylhexanohydroxamic Acid Hydrochloride]",,,>20,pIC50 [1]: 6.52
"CC(C)C[C@@H](C(=O)N[C@@H](Cc1ccc(OCCN(C)C)cc1)C(=O)c1ccco1)C(CCCc1ccccc1)C(=O)NO (single isomer, unassigned) [Example 44, 3(R)-[2-[4-(2-dimethylaminoethoxy)phenyl]-1(S)-(2-furyl)carbonyl]ethylcarbamoyl-5-methyl-2(R or S)-(3-phenylpropyl)hexanohydroxamic acid hydrochloride]",,,,pIC50 [1]: 6.38
"CC(C)C[C@@H](C(=O)N[C@@H](Cc1ccc(OS(=O)(=O)[O-])cc1)C(=O)c1ccco1)C(CN1C(=O)N(C)C(C)(C)C1=O)C(=O)NO.[Na+] (single isomer, unassigned) [Example 84, Sodium Salt of 3(R)-[1(S)-(2-Furyl)carbonyl-2-[4-(hydroxysulfonyloxy)phenyl]]ethylcarbamoyl-5-methyl-2(R or S)-(2,5-dioxo-3,4,4-trimethyl-1-imidazolidinyl)methylhexanohydroxamic Acid]",,,>20,
"CC(C)C[C@@H](C(=O)N[C@H](C(=O)c1ccc(OCCN(C)C)cc1)C(C)(C)C)C(CCCc1ccccc1)C(=O)NO.Cl (single isomer, unassigned) [Example 88, 3(R)-[2,2-dimethyl-1(S)-[4-(2-dimethylaminoethoxy)benzoyl]]propylcarbamoyl-5-methyl-2(R or S)-(3-phenylpropyl)hexanohydroxamic acid hydrochloride]",,,5,
"CC(C)C[C@@H](C(=O)N[C@H](C(=O)c1ccc(OCCN(C)C)cc1)C(C)(C)C)C(CN1C(=O)N(C)C(C)(C)C1=O)C(=O)NO.Cl (single isomer, unassigned) [Example 147, 3(R)-[2,2-Dimethyl-1(S)-[4-(2-dimethylaminoethoxy)benzoyl]]propylcarbamoyl-5-methyl-2(R or S)-(2,5-dioxo-3,4,4-trimethyl-1-imidazolidinyl)methylhexanohydroxamic Acid Hydrochloride]",,5.64,>20,
"CC(C)C[C@@H](C(=O)N[C@@H](Cc1ccccc1)C(=O)c1ccc(CO)o1)C(CN1C(=O)N(C)C(C)(C)C1=O)C(=O)NO (single isomer, unassigned) [Example 245, 3(R)-[1(S)-[2-(5-Hydroxymethyl)furyl]carbonyl-2-phenyl]ethylcarbamoyl-5-methyl-2(R or S)-(2,5-dioxo-3,4,4-trimethyl-1-imidazolidinyl)methylhexanohydroxamic Acid]",,5.43,,

# More lines, main results first:
solubility [2] [mg/mL],pIC50 [3],SMILES,"Solubility, saline [2] [mg/mL]",other results
> 5,6.19,"CC(C)C[C@@H](C(=O)N[C@@H](Cc1ccccc1)C(=O)c1ccc(OCCN(C)C)cc1)C(CN1C(=O)c2ccccc2C1=O)C(=O)NO.Cl (single isomer, unassigned) [Example 2, 3(R)-[1(S)-[4-(2-Dimethylaminoethoxy)benzoyl]-2-phenyl]ethylcarbamoyl-5-methyl-2(R or S)-phthalimidomethylhexanohydroxamic Acid Hydrochloride]",,pIC50 ([1]; Homo sapiens): 6.70
> 20,,"CC(C)C[C@@H](C(=O)N[C@@H](Cc1ccc(OCCN(C)C)cc1)C(=O)c1ccco1)C(CN1C(=O)N(C)C(C)(C)C1=O)C(=O)NO.Cl (single isomer, unassigned) [Example 5, 3(R)-[2-[4-(2-Dimethylaminoethoxy)phenyl]-1(S)-(2-furyl)carbonyl]ethylcarbamoyl-5-methyl-2(R or S)-(2,5-dioxo-3,4,4-trimethyl-1-imidazolidinyl)methylhexanohydroxamic Acid Hydrochloride]",,
> 20,5.61,"CC(C)C[C@@H](C(=O)N[C@@H](Cc1ccc(S(=O)(=O)[O-])cc1)C(=O)c1ccco1)C(Cc1ccc2ccccc2c1)C(=O)NO.[Na+] (single isomer, unassigned) [Example 7, Sodium Salt of 3(R)-[1(S)-(2-Furyl)carbonyl-2-(4-sulfophenyl)ethylcarbamoyl]-5-methyl-2(R or S)-(2-naphthylmethyl)hexanohydroxamic Acid]",,
> 20,,"CC(C)C[C@@H](C(=O)N[C@@H](Cc1ccc(S(=O)(=O)[O-])cc1)C(=O)c1ccco1)C(Cc1cccc2ccccc12)C(=O)NO.[Na+] (single isomer, unassigned) [Example 8, Sodium Salt of 3(R)-[1(S)-(2-Furyl)carbonyl-2-(4-sulfophenyl)ethylcarbamoyl]-5-methyl-2(R or S)-(1-naphthylmethyl)hexanohydroxamic Acid]",,
> 20,,"CC(C)C[C@@H](C(=O)N[C@@H](Cc1ccc(S(=O)(=O)[O-])cc1)C(=O)c1ccco1)C(Cc1ccccc1)C(=O)NO.[Na+] (single isomer, unassigned) [Example 9, Sodium Salt of 2(R or S)-Benzyl-3(R)-[1(S)-(2-furyl)carbonyl-2-(4-sulfophenyl)ethylcarbamoyl]-5-methylhexanohydroxamic Acid]",,
10,5.77,"CC(C)C[C@@H](C(=O)N[C@@H](Cc1ccc(S(=O)(=O)[O-])cc1)C(=O)c1ccco1)C(CN1C(=O)c2ccccc2C1=O)C(=O)NO.[Na+] (single isomer, unassigned) [Example 10, Sodium Salt of 3(R)-[1(S)-(2-Furyl)carbonyl-2-(4-sulfophenyl)ethylcarbamoyl]-5-methyl-2(R or S)-phthalimidomethylhexanohydroxamic Acid]",,
> 20,5.76,"CC(C)C[C@@H](C(=O)N[C@@H](Cc1ccc(S(=O)(=O)[O-])cc1)C(=O)c1ccco1)C(CN1Cc2ccccc2C1=O)C(=O)NO.[Na+] (single isomer, unassigned) [Example 11, Sodium Salt of 3(R)-[1(S)-(2-Furyl)carbonyl-2-(4-sulfophenyl)ethylcarbamoyl]-5-methyl-2(R or S)-(1-oxoisoindolin-2-ylmethyl)hexanohydroxamic Acid]",,
